We go through 35 molecules from patent publication US9150577B2, “Heterocyclic compounds containing an indole core” (Boehringer Ingelheim International GmbH, priority 2009, dated 2015).

Structures are written as SMILES.

The target in this experiment is Human RSK2 (Homo sapiens (Human), UniProt P51812). In words: Human RSK2 assay (Kinase Glo Plus, residual ATP).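 Note: recombinant human RSK2 phosphorylating a substrate peptide, 90 min at 28 °C, leftover ATP read by luminescence, RLU scaled between no-kinase background and uninhibited kinase controls, 4-parameter fit.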 In kind it is biochemical.
Sequence of Human RSK2 (P51812 whole entry): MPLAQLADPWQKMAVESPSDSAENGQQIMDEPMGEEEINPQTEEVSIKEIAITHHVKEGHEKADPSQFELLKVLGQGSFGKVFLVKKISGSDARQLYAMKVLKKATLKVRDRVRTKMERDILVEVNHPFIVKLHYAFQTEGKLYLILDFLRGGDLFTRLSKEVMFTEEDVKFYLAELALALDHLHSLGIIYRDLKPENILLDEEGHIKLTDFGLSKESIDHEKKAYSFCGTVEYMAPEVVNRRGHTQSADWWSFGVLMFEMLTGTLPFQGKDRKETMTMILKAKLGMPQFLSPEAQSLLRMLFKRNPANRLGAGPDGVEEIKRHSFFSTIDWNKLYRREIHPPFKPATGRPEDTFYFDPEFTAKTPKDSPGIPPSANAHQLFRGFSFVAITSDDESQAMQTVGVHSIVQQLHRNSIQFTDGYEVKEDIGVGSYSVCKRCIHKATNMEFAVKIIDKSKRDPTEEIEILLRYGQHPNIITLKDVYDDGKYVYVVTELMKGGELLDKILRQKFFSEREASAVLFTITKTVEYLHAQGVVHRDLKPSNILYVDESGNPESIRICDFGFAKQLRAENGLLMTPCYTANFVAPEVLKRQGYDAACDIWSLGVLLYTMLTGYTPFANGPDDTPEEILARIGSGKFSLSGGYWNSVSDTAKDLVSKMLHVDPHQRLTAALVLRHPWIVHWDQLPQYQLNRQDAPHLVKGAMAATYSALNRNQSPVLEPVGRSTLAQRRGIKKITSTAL
Turning to `CC1CNC(=O)c2cc3ccc(C(=O)Nc4nc5ccccc5n4C)cc3n21` (centres unmarked) [Example 61, 4-methyl-N-(1-methyl-1H-benzimidazol-2-yl)-1-oxo-1,2,3,4-tetrahydropyrazino[1,2-a]indole-7-carboxamide], the IC50 amounted to 0.0022 µM.
As to `Cc1cc(NC(=O)c2ccc3cc4n(c3c2)CCCNC4=O)n[nH]1` [Example 219, N-(5-methyl-1H-pyrazol-3-yl)-1-oxo-2,3,4,5-tetrahydro-1H-[1,4]diazepino[1,2-a]indole-8-carboxamide], the IC50 worked out at 0.068 µM.
Then `CC(=O)c1cccc(NC(=O)c2ccc3cc4n(c3c2)CCCNC4=O)c1` [Example 187, N-(3-acetylphenyl)-1-oxo-2,3,4,5-tetrahydro-1H-[1,4]diazepino[1,2-a]indole-8-carboxamide], with 0.16 µM; and `O=C(Nc1ncc[nH]1)c1ccc2cc3n(c2c1)CCCNC3=O` [Example 108, N-(1H-imidazol-2-yl)-1-oxo-2,3,4,5-tetrahydro-1H-[1,4]diazepino[1,2-a]indole-8-carboxamide], with 0.0255 µM; and `Cc1cc(NC(=O)c2ccc3cc4n(c3c2)CC(C)(C)CNC4=O)no1` [Example 157, 4,4-dimethyl-N-(5-methyl-1,2-oxazol-3-yl)-1-oxo-2,3,4,5-tetrahydro-1H-[1,4]diazepino[1,2-a]indole-8-carboxamide], with 1.8 µM.
Turning to `O=C(Nc1nc2ccccc2n1CCc1ccccn1)c1ccc2cc3n(c2c1)CCCNC3=O` [Example 89, 1-oxo-N-{1-[2-(pyridin-2-yl)ethyl]-1H-benzimidazol-2-yl}-2,3,4,5-tetrahydro-1H-[1,4]diazepino[1,2-a]indole-8-carboxamide], the IC50 stood at 0.022 µM.
Consider `N#Cc1ccc(NC(=O)c2ccc3cc4n(c3c2)CCCNC4=O)cc1` [Example 185, N-(4-cyanophenyl)-1-oxo-2,3,4,5-tetrahydro-1H-[1,4]diazepino[1,2-a]indole-8-carboxamide], for which the IC50 amounted to 0.106 µM.
As for `CC1CCNC(=O)c2cc3ccc(C(=O)Nc4ccccc4C(N)=O)cc3n21` (centres unmarked) [Example 222, N-(2-carbamoylphenyl)-5-methyl-1-oxo-2,3,4,5-tetrahydro-1H-[1,4]diazepino[1,2-a]indole-8-carboxamide], the IC50 came to 0.011 µM.
As to `C[C@H]1NC(=O)c2cc3ccc(C(=O)Nc4cnn(Cc5ccccc5)c4)cc3n2[C@H]1C` (relative stereo) [Example 29, N-(1-benzyl-1H-pyrazol-4-yl)-cis-3,4-dimethyl-1-oxo-1,2,3,4-tetrahydropyrazino[1,2-a]indole-7-carboxamide], the IC50 stood at 0.0019 µM.
In the case of `O=C(Nc1cc(C(F)(F)F)no1)c1ccc2cc3n(c2c1)CCCNC3=O` [Example 207, 1-oxo-N-[3-(trifluoromethyl)-1,2-oxazol-5-yl]-2,3,4,5-tetrahydro-1H-[1,4]diazepino[1,2-a]indole-8-carboxamide] it was 0.085 µM; in that of `CN(C)CCCn1c(NC(=O)c2ccc3cc4n(c3c2)C(C)(C)CNC4=O)nc2ccccc21` [Example 98, N-{1-[3-(dimethylamino)propyl]-1H-benzimidazol-2-yl}-4,4-dimethyl-1-oxo-1,2,3,4-tetrahydropyrazino[1,2-a]indole-7-carboxamide], 0.00038 µM.
Then `CC1CCNC(=O)c2cc3ccc(C(=O)Nc4cccnc4)cc3n21` (centres unmarked) [Example 10, 5-methyl-1-oxo-N-(pyridin-3-yl)-2,3,4,5-tetrahydro-1H-[1,4]diazepino[1,2-a]indole-8-carboxamide], with 0.041 µM; and `CC(C)c1cccc(NC(=O)c2ccc3cc4n(c3c2)CCCNC4=O)c1` [Example 145, 1-oxo-N-[3-(propan-2-yl)phenyl]-2,3,4,5-tetrahydro-1H-[1,4]diazepino[1,2-a]indole-8-carboxamide], with 0.14 µM; and `Cc1cc(C)cc(Cn2cc(NC(=O)c3ccc4cc5n(c4c3)CCCNC5=O)cn2)c1` [Example 28, N-[1-(3,5-dimethylbenzyl)-1H-pyrazol-4-yl]-1-oxo-2,3,4,5-tetrahydro-1H-[1,4]diazepino[1,2-a]indole-8-carboxamide], with 0.0019 µM.
Then `CC(C)(C)c1cc(NC(=O)c2ccc3cc4n(c3c2)CCCNC4=O)no1` [Example 175, N-(5-tert-butyl-1,2-oxazol-3-yl)-1-oxo-2,3,4,5-tetrahydro-1H-[1,4]diazepino[1,2-a]indole-8-carboxamide], with 0.15 µM; and `CN(C)CCCn1c(NC(=O)c2ccc3cc4n(c3c2)CC2(CCOCC2)CNC4=O)nc2ccccc21` [Example 95, N-{1-[3-(dimethylamino)propyl]-1H-benzimidazol-2-yl}-1-oxo-2,2′,3,3′,5′,6′-hexahydro-1H-spiro[1,4-diazepino[1,2-a]indole-4,4′-pyran]-8-carboxamide], with 0.016 µM.
Turning to `O=C(Nc1cc[nH]n1)c1ccc2cc3n(c2c1)CCCNC3=O` [Example 220, 1-oxo-N-(1H-pyrazol-3-yl)-2,3,4,5-tetrahydro-1H-[1,4]diazepino[1,2-a]indole-8-carboxamide], the IC50 was 0.093 µM.
In the case of `CC(C)n1c(NC(=O)c2ccc3cc4n(c3c2)[C@@H](C)[C@@H](C)CNC4=O)nc2ccccc21` (relative stereo) [Example 70, cis-4,5-dimethyl-1-oxo-N-[1-(propan-2-yl)-1H-benzimidazol-2-yl]-2,3,4,5-tetrahydro-1H-[1,4]diazepino[1,2-a]indole-8-carboxamide] it was 0.0018 µM.
Consider `N#Cc1cccc(NC(=O)c2ccc3cc4n(c3c2)CCCNC4=O)c1` [Example 6, N-(3-cyanophenyl)-1-oxo-2,3,4,5-tetrahydro-1H-[1,4]diazepino[1,2-a]indole-8-carboxamide], for which the IC50 was 0.14 µM.
Then `Cc1cc(NC(=O)c2ccc3cc4n(c3c2)CCCNC4=O)no1` [Example 2, N-(5-methyl-1,2-oxazol-3-yl)-1-oxo-2,3,4,5-tetrahydro-1H-[1,4]diazepino[1,2-a]indole-8-carboxamide], with 0.03 µM; and `O=C(Nc1cccc(-c2c[nH]cn2)c1)c1ccc2cc3n(c2c1)CCCNC3=O` [Example 226, N-[3-(1H-imidazol-4-yl)phenyl]-1-oxo-2,3,4,5-tetrahydro-1H-[1,4]diazepino[1,2-a]indole-8-carboxamide], with 0.052 µM; and `Cc1cc(NC(=O)c2ccc3cc4n(c3c2)[C@@H](C)[C@@H](C)NC4=O)no1` [Example 172, (3R,4S)-3,4-dimethyl-N-(5-methyl-1,2-oxazol-3-yl)-1-oxo-1,2,3,4-tetrahydropyrazino[1,2-a]indole-7-carboxamide], with 1.1 µM.
In the case of `CCCc1cc(NC(=O)c2ccc3cc4n(c3c2)CCCNC4=O)on1` [Example 202, 1-oxo-N-(3-propyl-1,2-oxazol-5-yl)-2,3,4,5-tetrahydro-1H-[1,4]diazepino[1,2-a]indole-8-carboxamide] it was 0.016 µM; in that of `O=C(Nc1cnc2ccccc2c1)c1ccc2cc3n(c2c1)CCCNC3=O` [Example 190, 1-oxo-N-(quinolin-3-yl)-2,3,4,5-tetrahydro-1H-[1,4]diazepino[1,2-a]indole-8-carboxamide], 0.034 µM.
Then `O=C(Nc1nc2ccccc2[nH]1)c1ccc2cc3n(c2c1)CCCNC3=O` [Example 55, N-(1H-benzimidazol-2-yl)-1-oxo-2,3,4,5-tetrahydro-1H-[1,4]diazepino[1,2-a]indole-8-carboxamide], with 0.0044 µM; and `CC(C)n1cc(NC(=O)c2ccc3cc4n(c3c2)CCCNC4=O)cn1` [Example 25, 1-oxo-N-[1-(propan-2-yl)-1H-pyrazol-4-yl]-2,3,4,5-tetrahydro-1H-[1,4]diazepino[1,2-a]indole-8-carboxamide], with 0.014 µM.
For `O=C(Nc1cn[nH]c1)c1ccc2cc3n(c2c1)CCCNC3=O` [Example 15, 1-oxo-N-(1H-pyrazol-4-yl)-2,3,4,5-tetrahydro-1H-[1,4]diazepino[1,2-a]indole-8-carboxamide], the IC50 stood at 0.043 µM.
On to `C[C@@H]1NC(=O)c2cc3ccc(C(=O)Nc4cccnc4)cc3n2[C@H]1C` (relative stereo) [Example 180, Trans-3,4-dimethyl-1-oxo-N-(pyridin-3-yl)-1,2,3,4-tetrahydropyrazino[1,2-a]indole-7-carboxamide], for which the IC50 came out at 0.895 µM.
On to `Cc1nn(C)c2ncc(NC(=O)c3ccc4cc5n(c4c3)CCCNC5=O)cc12` [Example 189, N-(1,3-dimethyl-1H-pyrazolo[3,4-b]pyridin-5-yl)-1-oxo-2,3,4,5-tetrahydro-1H-[1,4]diazepino[1,2-a]indole-8-carboxamide], for which the IC50 is 1.3 µM.
In the case of `COc1cc(NC(=O)c2ccc3cc4n(c3c2)CCCNC4=O)ccn1` [Example 204, N-(2-methoxypyridin-4-yl)-1-oxo-2,3,4,5-tetrahydro-1H-[1,4]diazepino[1,2-a]indole-8-carboxamide] it was 0.017 µM.
In the case of `C[C@H]1CNC(=O)c2cc3ccc(C(=O)Nc4nc5ccccc5n4CCCN(C)C)cc3n21` [Example 131, (4S)-N-{1-[3-(dimethylamino)propyl]-1H-benzimidazol-2-yl}-4-methyl-1-oxo-1,2,3,4-tetrahydropyrazino[1,2-a]indole-7-carboxamide] it was 0.015 µM.
For `CC(C)n1c(NC(=O)c2ccc3cc4n(c3c2)[C@@H](C)[C@@H](C)NC4=O)nc2ccccc21` (relative stereo) [Example 67, cis-3,4-dimethyl-1-oxo-N-[1-(propan-2-yl)-1H-benzimidazol-2-yl]-1,2,3,4-tetrahydropyrazino[1,2-a]indole-7-carboxamide], the IC50 stood at 0.0034 µM.
Then `CC1(c2cc(NC(=O)c3ccc4cc5n(c4c3)CCCNC5=O)on2)CC1` [Example 197, N-[3-(1-methylcyclopropyl)-1,2-oxazol-5-yl]-1-oxo-2,3,4,5-tetrahydro-1H-[1,4]diazepino[1,2-a]indole-8-carboxamide], with 0.027 µM; and `O=C(Nc1cnn(Cc2ccccc2)c1)c1ccc2cc3n(c2c1)CCCNC3=O` [Example 32, N-(1-benzyl-1H-pyrazol-4-yl)-1-oxo-2,3,4,5-tetrahydro-1H-[1,4]diazepino[1,2-a]indole-8-carboxamide], with 0.004 µM.
In the case of `O=C(Nc1cccc(-c2cc[nH]n2)c1)c1ccc2cc3n(c2c1)CCCNC3=O` [Example 227, 1-oxo-N-[3-(1H-pyrazol-3-yl)phenyl]-2,3,4,5-tetrahydro-1H-[1,4]diazepino[1,2-a]indole-8-carboxamide] it was 0.041 µM.
